Where two headings read alike, the source gives them in different places.
What was measured:
Assay type in all cases: cell-based
Salmonella typhimurium [1] = assay: Example 3: buffered organic acid mixtures with pelargonic acid in water
Description: Procedure: Propionic and acetic acids were buffered with ammonium hydroxide to a pH of 3 and combined with pelargonic in the ratios above. Acid content of the buffered solutions was determined by weight to weight ratio calculation (weight of acid/total weight of buffered solution) and adjusted to provide an equal acid value for each treatment. […] The pHs of the deionized water solutions were recorded and any problems with solubility noted.
(§1) 100 ul of a nutrient broth culture of Salmonella typhimurium was added to each dilution tube. After addition, tubes were vortexed and allowed to stand. At 4 and 24 hours after addition of the inoculum, 100 ul of the solution was plated on Standard Plate agar (triplicate plates). Plates were incubated at 37° C. for 24 hours prior to enumeration. The minimum effective dose of each acid was determined by linear regression.

Salmonella typhimurium [2] = assay: Study 4: pelargonic acid (1-20%) in buffered propionic or acetic acid in water
Description: Propionic and acetic acids were buffered with ammonium hydroxide to a pH of 3 and combined with pelargonic in the ratios listed. Acid content of the buffered solutions was determined by weight to weight ratio calculation (weight of acid/total weight of buffered solution) and adjusted to provide an equal acid value for each treatment. […] The pHs of the deionized water solutions were recorded and any problems with solubility noted.
100 ul of a nutrient broth culture of Salmonella typhimurium was added to each dilution tube. After addition, tubes were vortexed and allowed to stand. At 4 and 24 hours after addition of the inoculum, 100 ul of the solution was plated on Standard Plate agar (triplicate plates). Plates were incubated at 37° C. for 24 hours prior to enumeration.

Salmonella typhimurium [3] = assay: Example 1: effect of pH buffering of acetic and propionic acid on antimicrobial activity in water
Description: Propionic and acetic acids were buffered with ammonium hydroxide to pHs ranging from 1 to 7. Acid contents of the buffered solutions were determined by a weight to weight ratio calculation to obtain the same acid content in the test solutions. […] The pHs of the deionized water solutions were recorded and any problems with solubility noted.
as §1

Salmonella typhimurium [4] = assay: Example 2: effect of carbon chain length of individual organic acids on antimicrobial activity in water; design: MIC at 4 HR / MIC at 24 FIR: unit not given here; settings: for MIC at 4 HR / MIC at 24 FIR: Minimum Inhibitory Concentration of Organic Acids against Salmonella, by linear regression; for MIC at 24 FIR: 24 hours; for killing at […] / killing at 0.05 % / killing at 0.075 % / killing at 0.1 %: Salmonella enterica, TYPHIMURIUM
Description: 100 ul of a nutrient broth culture of Salmonella typhimurium was added to each dilution tube. After addition, tubes were vortexed and allowed to stand. At 4 and 24 hours after addition of the inoculum, 100 ul of the solution was plated on agar (triplicate plates). Plates were incubated at 37° C. for 24 hours prior to enumeration. The minimum effective dose of each acid was be determined by linear regression: […]

[5] = Product Conc. 0.025 (% total acid solution in water)
[6] = Product Conc. 0.05 (% total acid solution in water)
[7] = Product Conc. 0.075 (% total acid solution in water)
[8] = Product Conc. 0.1 (% total acid solution in water)
[9] = Product Concentration 0.025 (% total acid solution in water)
[10] = Product Concentration 0.05 (% total acid solution in water)
[11] = Product Conc. 0.025 (% acid solution in water), 4 hr
[12] = Product Conc. 0.025 (% acid solution in water), 24 hr
[13] = Product Conc. 0.05 (% acid solution in water), 4 hr
[14] = Product Conc. 0.05 (% acid solution in water), 24 hr
[15] = Product Conc. 0.075 (% acid solution in water), 4 hr
[16] = Product Conc. 0.075 (% acid solution in water), 24 hr
[17] = Product Conc. 0.1 (% acid solution in water), 4 hr
[18] = Product Conc. 0.1 (% acid solution in water), 24 hr
[19] = Product Conc. 0.025 (% acid solution in water), 4 hr, read-out: Salmonella at time Interval 4 hr % reduction
[20] = Product Conc. 0.025 (% acid solution in water), 24 hr, read-out: Salmonella at time Interval 24 hr % reduction
[21] = Product Conc. 0.05 (% acid solution in water), 4 hr, read-out: Salmonella at time Interval 4 hr % reduction
[22] = Product Conc. 0.05 (% acid solution in water), 24 hr, read-out: Salmonella at time Interval 24 hr % reduction
[23] = Product Conc. 0.075 (% acid solution in water), 4 hr, read-out: Salmonella at time Interval 4 hr % reduction
[24] = Product Conc. 0.075 (% acid solution in water), 24 hr, read-out: Salmonella at time Interval 24 hr % reduction
[25] = Product Conc. 0.1 (% acid solution in water), 4 hr, read-out: Salmonella at time Interval 4 hr % reduction
[26] = Product Conc. 0.1 (% acid solution in water), 24 hr, read-out: Salmonella at time Interval 24 hr % reduction

CC(=O)O [Acetic pH 3, Acetic acid]
Salmonella at time Interval 4 hr % reduction (Salmonella typhimurium [1]; [5]): 38%
Salmonella at time Interval 4 hr cfu/g (Salmonella typhimurium [1]; [5]): 943 cfu/g
Salmonella at time Interval 24 hr % reduction (Salmonella typhimurium [1]; [5]): 92%
Salmonella at time Interval 24 hr cfu/g (Salmonella typhimurium [1]; [5]): 123 cfu/g
Salmonella at time Interval 4 hr % reduction (Salmonella typhimurium [1]; [6]): 34%
Salmonella at time Interval 4 hr cfu/g (Salmonella typhimurium [1]; [6]): 1007 cfu/g
Salmonella at time Interval 24 hr % reduction (Salmonella typhimurium [1]; [6]): 92%
Salmonella at time Interval 24 hr cfu/g (Salmonella typhimurium [1]; [6]): 120 cfu/g
Salmonella at time Interval 4 hr % reduction (Salmonella typhimurium [1]; [7]): 34%
Salmonella at time Interval 4 hr cfu/g (Salmonella typhimurium [1]; [7]): 1007 cfu/g
Salmonella at time Interval 24 hr % reduction (Salmonella typhimurium [1]; [7]): 95%
Salmonella at time Interval 24 hr cfu/g (Salmonella typhimurium [1]; [7]): 77 cfu/g
Salmonella at time Interval 4 hr % reduction (Salmonella typhimurium [1]; [8]): 36%
Salmonella at time Interval 4 hr cfu/g (Salmonella typhimurium [1]; [8]): 967 cfu/g
Salmonella at time Interval 24 hr % reduction (Salmonella typhimurium [1]; [8]): 95%
Salmonella at time Interval 24 hr cfu/g (Salmonella typhimurium [1]; [8]): 83 cfu/g
Salmonella at time Interval 4 hr % reduction (Salmonella typhimurium [2]; [9]): 29%
Salmonella at time Interval 4 hr cfu/g (Salmonella typhimurium [2]; [9]): 1000 cfu/g
Salmonella at time Interval 24 hr % reduction (Salmonella typhimurium [2]; [9]): 96%
Salmonella at time Interval 24 hr cfu/g (Salmonella typhimurium [2]; [9]): 60 cfu/g
Salmonella at time Interval 4 hr % reduction (Salmonella typhimurium [2]; [10]): 32%
Salmonella at time Interval 4 hr cfu/g (Salmonella typhimurium [2]; [10]): 950 cfu/g
Salmonella at time Interval 24 hr % reduction (Salmonella typhimurium [2]; [10]): 99%
Salmonella at time Interval 24 hr cfu/g (Salmonella typhimurium [2]; [10]): 20 cfu/g
MIC at 4 Hr (Salmonella typhimurium [3]; Minimum Inhibitory Concentrations, by linear regression over 0.025-0.1% acid solutions, 4 hr, pH 3): 0.176
MIC at 24 HR (Salmonella typhimurium [3]; Minimum Inhibitory Concentrations, by linear regression over 0.025-0.1% acid solutions, 24 hr, pH 3): 0.073
Salmonella at time Interval 4 hr % reduction (Salmonella typhimurium [3]; [11]): 27%
Salmonella at time Interval 4 hr cfu/g (Salmonella typhimurium [3]; [11]): 1100 cfu/g
Salmonella at time Interval 24 hr % reduction (Salmonella typhimurium [3]; [12]): 75%
Salmonella at time Interval 24 hr cfu/g (Salmonella typhimurium [3]; [12]): 300 cfu/g
Salmonella at time Interval 4 hr % reduction (Salmonella typhimurium [3]; [13]): 44%
Salmonella at time Interval 4 hr cfu/g (Salmonella typhimurium [3]; [13]): 843 cfu/g
Salmonella at time Interval 24 hr % reduction (Salmonella typhimurium [3]; [14]): 90%
Salmonella at time Interval 24 hr cfu/g (Salmonella typhimurium [3]; [14]): 117 cfu/g
Salmonella at time Interval 4 hr % reduction (Salmonella typhimurium [3]; [15]): 38%
Salmonella at time Interval 4 hr cfu/g (Salmonella typhimurium [3]; [15]): 927 cfu/g
Salmonella at time Interval 24 hr % reduction (Salmonella typhimurium [3]; [16]): 92%
Salmonella at time Interval 24 hr cfu/g (Salmonella typhimurium [3]; [16]): 90 cfu/g
Salmonella at time Interval 4 hr % reduction (Salmonella typhimurium [3]; [17]): 42%
Salmonella at time Interval 4 hr cfu/g (Salmonella typhimurium [3]; [17]): 873 cfu/g
Salmonella at time Interval 24 hr % reduction (Salmonella typhimurium [3]; [18]): 96%
Salmonella at time Interval 24 hr cfu/g (Salmonella typhimurium [3]; [18]): 43 cfu/g

CCCCCCC(=O)O [Oenanthic acid]
MIC at 4 HR (Salmonella typhimurium [4]; 4 hr): 0.075
MIC at 24 FIR (Salmonella typhimurium [4]): 0.063
Salmonella at time Interval 4 hr % reduction (Salmonella typhimurium [4]; [11]): 31%
Salmonella at time Interval 4 hr cfu/g (Salmonella typhimurium [4]; [11]): 1103 cfu/g
Salmonella at time Interval 24 hr % reduction (Salmonella typhimurium [4]; [12]): 99%
Salmonella at time Interval 24 hr cfu/g (Salmonella typhimurium [4]; [12]): 10 cfu/g
Salmonella at time Interval 4 hr % reduction (Salmonella typhimurium [4]; [13]): 100%
Salmonella at time Interval 4 hr cfu/g (Salmonella typhimurium [4]; [13]): 0 cfu/g
Salmonella at time Interval 24 hr % reduction (Salmonella typhimurium [4]; [14]): 100%
Salmonella at time Interval 24 hr cfu/g (Salmonella typhimurium [4]; [14]): 0 cfu/g
Salmonella at time Interval 4 hr % reduction (Salmonella typhimurium [4]; [15]): 100%
Salmonella at time Interval 4 hr cfu/g (Salmonella typhimurium [4]; [15]): 0 cfu/g
Salmonella at time Interval 24 hr % reduction (Salmonella typhimurium [4]; [16]): 100%
Salmonella at time Interval 24 hr cfu/g (Salmonella typhimurium [4]; [16]): 0 cfu/g
Salmonella at time Interval 4 hr % reduction (Salmonella typhimurium [4]; [17]): 100%
Salmonella at time Interval 4 hr cfu/g (Salmonella typhimurium [4]; [17]): 0 cfu/g
Salmonella at time Interval 24 hr % reduction (Salmonella typhimurium [4]; [18]): 100%
Salmonella at time Interval 24 hr cfu/g (Salmonella typhimurium [4]; [18]): 0 cfu/g

CCCCCCCCC(=O)O [Pelargonic acid/KOH, Pelargonic acid]
Salmonella at time Interval 4 hr cfu/g (Salmonella typhimurium [4]; [11]): 7 cfu/g
Salmonella at time Interval 24 hr cfu/g (Salmonella typhimurium [4]; [12]): 0 cfu/g
Salmonella at time Interval 4 hr cfu/g (Salmonella typhimurium [4]; [13]): 0 cfu/g
Salmonella at time Interval 24 hr cfu/g (Salmonella typhimurium [4]; [14]): 0 cfu/g
Salmonella at time Interval 4 hr cfu/g (Salmonella typhimurium [4]; [15]): 0 cfu/g
Salmonella at time Interval 24 hr cfu/g (Salmonella typhimurium [4]; [16]): 0 cfu/g
Salmonella at time Interval 4 hr cfu/g (Salmonella typhimurium [4]; [17]): 0 cfu/g
Salmonella at time Interval 24 hr cfu/g (Salmonella typhimurium [4]; [18]): 0 cfu/g
killing at […] (Salmonella typhimurium [4]; [19]): 100%
killing at […] (Salmonella typhimurium [4]; [20]): 100%
killing at 0.05 % (Salmonella typhimurium [4]; [21]): 100%
killing at 0.05 % (Salmonella typhimurium [4]; [22]): 100%
killing at 0.075 % (Salmonella typhimurium [4]; [23]): 100%
killing at 0.075 % (Salmonella typhimurium [4]; [24]): 100%
killing at 0.1 % (Salmonella typhimurium [4]; [25]): 100%
killing at 0.1 % (Salmonella typhimurium [4]; [26]): 100%

CCCCC(=O)O [Valeric acid]
MIC at 4 HR (Salmonella typhimurium [4]; 4 hr): 0.174
MIC at 24 FIR (Salmonella typhimurium [4]): 0.070
Salmonella at time Interval 4 hr cfu/g (Salmonella typhimurium [4]; [11]): 1233 cfu/g
Salmonella at time Interval 24 hr cfu/g (Salmonella typhimurium [4]; [12]): 533 cfu/g
Salmonella at time Interval 4 hr cfu/g (Salmonella typhimurium [4]; [13]): 1267 cfu/g
Salmonella at time Interval 24 hr cfu/g (Salmonella typhimurium [4]; [14]): 73 cfu/g
Salmonella at time Interval 4 hr cfu/g (Salmonella typhimurium [4]; [15]): 990 cfu/g
Salmonella at time Interval 24 hr cfu/g (Salmonella typhimurium [4]; [16]): 37 cfu/g
Salmonella at time Interval 4 hr cfu/g (Salmonella typhimurium [4]; [17]): 657 cfu/g
Salmonella at time Interval 24 hr cfu/g (Salmonella typhimurium [4]; [18]): 17 cfu/g
killing at […] (Salmonella typhimurium [4]; [19]): 23%
killing at […] (Salmonella typhimurium [4]; [20]): 69%
killing at 0.05 % (Salmonella typhimurium [4]; [21]): 21%
killing at 0.05 % (Salmonella typhimurium [4]; [22]): 96%
killing at 0.075 % (Salmonella typhimurium [4]; [23]): 38%
killing at 0.075 % (Salmonella typhimurium [4]; [24]): 98%
killing at 0.1 % (Salmonella typhimurium [4]; [25]): 59%
killing at 0.1 % (Salmonella typhimurium [4]; [26]): 99%

From patent US10785975B2, “Water and feed antimicrobial preservative” (priority 2009, dated 2020)
